# Measured values reported in patent US20050209319A1, “Treatment of local pain” (XenoPort, Inc., priority 2004, published 2005).
# Read-outs that look alike come from different tables or passages of the source.
# What was measured:
# Caco-2 cell monolayers = assay: Permeability across Caco-2 cell monolayers (cultured human epithelial cell monolayer assay); format: in vitro ADME; details: for Permeability coefficient (Papp) A to B: apical to basolateral; for Permeability coefficient (Papp) A to B / Permeability coefficient (Papp) B to A: donor 100-200 μM, 1 hr at 37° C, apical pH 6.5, basolateral pH 7.4; for Permeability coefficient (Papp) B to A: basolateral to apical
# Excerpt: The following comparative test was run to determine the permeability of gabapentin and a prodrug of gabapentin across a cultured monolayer of human mucosal tissue cells (intestinal epithelial cells). Intestinal epithelial cells have an apical side (i.e., the side normally facing the gut lumen) and a basolateral side (i.e., the side normally facing the patient's internal blood carrying tissues). Both the permeability of the compounds through the monolayer of cells from apical to basolateral (A to B) and basolateral to apical (B to A) were measured.
# Caco-2 cells were obtained from the ATCC (Manassas, Va.) and cultured as indicated by the supplier. Caco-2 cells were seeded into 24-well transwell plates with 3 μm filters (Corning/Costar, Acton, Mass.) at a density of 500,000 cells/well and allowed to differentiate in the transwell plates for 21 days. The test compounds were dissolved into either pH 6.5 (apical MES (4-morpholineethane sulfonic acid) buffer) or pH 7.4 (basolateral HBSS (Hanks balanced salt solution) buffer) at concentrations of 100 to 200 μM and added to the appropriate chambers. Samples were removed from the receiving chambers at various times and the permeability was measured by determining the concentration of prodrug and gabapentin (produced by esterase cleavage within the epithelial cells) by LC/MS/MS (liquid chromatography/mass spectroscopy/mass spectroscopy). Apparent permeability coefficients (“Papp”) were calculated by standard methods (B. H. Stewart et al., Pharm. Res., 1995, 12, pp. 693-699). Integrity of the monolayer was confirmed by determining the permeability of 3H-inulin. If greater than 0.5% of the inulin was detected in the receiving chamber, the transwells were discarded.
# [1] = Parallel artificial membrane permeability assay (PAMPA); format: in vitro ADME; details: for Passive permeability in vitro across artificial membranes (in words): PAMPA assays; for Papp at 2 h, 50 µM: PAMPA
# Procedure: Artificial membranes were prepared by adding 4 μL of 2% (w/v) dioleoylphosphatidyl-choline in dodecane onto the hydrophobic filters ([…] polyvinylidene fluoride) on the base of the wells of a 96-well donor plate (Millipore, Bedford, Mass.). Gabapentin or a gabapentin prodrug (150 μL of 50 μM solution in 0.1 M Tris buffer, pH 6.5 or pH 7.4) was added to the donor wells in triplicate. The gabapentin prodrug used was 1-{[(α-isobutanoyloxyethoxy)carbonyl]-aminomethyl}-1-cyclohexane acetic acid. The plate was placed onto a 96-well acceptor plate (Agilent, Wilmington, Del.), in which each well contained 400 μL 0.1 M Tris, pH 7.4. Following incubation for two hours at room temperature, samples of the donor and receiver chambers were removed for analysis by LC/MS/MS. The permeability coefficient through the artificial membrane (“Pam”) was calculated using standard methods (Sugano et al., Int. J. Pharm., 2001, 228, pp. 181-188). The artificial membrane permeability coefficient, Pam, of 1-{[(α-isobutanoyloxyethoxy)carbonyl]-aminomethyl}-1-cyclohexane acetic acid was about 5 to 30 times higher than the Pam for gabapentin at the two test pH values as shown in Table 2.
# [2] = injection into hindpaw of rats pretreated with 2% formalin injection; cited from earlier work
Compound,Passive permeability in vitro through Caco-2 cell monolayers (in words) (Caco-2 cell monolayers),Permeability coefficient (Papp) A to B (Caco-2 cell monolayers),Permeability coefficient (Papp) B to A (Caco-2 cell monolayers),Papp compared with the Papp for gabapentin (Caco-2 cell monolayers; from the basolateral to the apical side),Passive permeability in vitro across artificial membranes (in words) [1],"Permeability coefficient (Pam) pH 6.5 ([1]; donor chamber pH 6.5, 50 μM, two hours at room temperature, acceptor pH 7.4)","Permeability coefficient (Pam) pH 7.4 ([1]; donor chamber pH 7.4, 50 μM, two hours at room temperature, acceptor pH 7.4)",Effect on nociceptive behavior [2],Passive permeability in vitro through Caco-2 cell monolayers (in words) (Caco-2 cell monolayers; Caco-2),"Papp at 2 h, 50 µM ([1]; donor chamber pH 6.5, 50 μM, two hours at room temperature, acceptor pH 7.4, read-out: Permeability coefficient (Pam) pH 6.5) [×10⁻⁶ cm/s]","Papp at 2 h, 50 µM ([1]; donor chamber pH 7.4, 50 μM, two hours at room temperature, acceptor pH 7.4, read-out: Permeability coefficient (Pam) pH 7.4) [×10⁻⁶ cm/s]"
CC(OC(=O)NCC1(CC(=O)O)CCCCC1)OC(=O)C(C)C (stereo not drawn) [1-{[(α-isobutanoyloxyethoxy)carbonyl]-aminomethyl}-1-cyclohexane acetic acid],relatively high passive permeability,31 (cm/sec) × 10^6,5.7 (cm/sec) × 10^6,significantly higher,relatively high passive permeability,0.65 (cm/sec) × 10^6,0.095 (cm/sec) × 10^6,–,–,–,–
NCC1(CC(=O)O)CCCCC1 [Gabapentin],–,3.2 (cm/sec) × 10^6,3.4 (cm/sec) × 10^6,–,limited passive permeability,–,–,significantly reduced nociceptive behavior,limited passive permeability,0.02,0.026
